Reference: US9944666B2, “Compounds that are S1P modulating agents and/or ATX modulating agents” (BIOGEN MA INC., priority 2012, dated 2018)

Tests used:
human S1P4 [1] = biological target: T1, human S1P4 (Homo sapiens, UniProt O95977); assay: S1P receptor calcium mobilization assay, agonist format; format: cell-based; conditions: recombinant CHEM cells expressing human S1P4, calcium flux, FLIPR
T1 construct: host or cells: recombinant CHEM cells
T1 sequence (O95977 1-384): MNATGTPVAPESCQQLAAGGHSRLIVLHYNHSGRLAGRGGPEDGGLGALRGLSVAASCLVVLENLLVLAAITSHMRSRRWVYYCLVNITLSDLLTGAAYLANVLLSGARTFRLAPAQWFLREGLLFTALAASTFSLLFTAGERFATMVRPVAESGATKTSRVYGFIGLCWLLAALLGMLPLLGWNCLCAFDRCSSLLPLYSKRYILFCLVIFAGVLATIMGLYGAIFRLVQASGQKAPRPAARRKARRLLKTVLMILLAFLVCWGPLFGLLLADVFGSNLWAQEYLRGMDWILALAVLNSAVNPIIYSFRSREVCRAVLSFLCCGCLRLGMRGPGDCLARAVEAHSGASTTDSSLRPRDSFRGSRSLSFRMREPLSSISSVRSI
Protocol: (§1) Compounds that are not specific for a particular S1P receptor can cause undesirable side effects. Accordingly, compounds are tested to identify those that are specific. Accordingly, the test compounds are tested in a calcium mobilization assay/S1P receptor activity assay. The procedure is essentially as described in Davis et al. (2005) Journal of Biological Chemistry, vol. 280, pp. 9833-9841, which is incorporated by reference in its entirety with the following modifications. Calcium mobilization assays are performed in recombinant CHEM cells expressing human S1P1, S1P2, S1P3, S1P4, or S1P5 purchased from Millipore (Billerica, Mass.). To detect free intracellular calcium, S1P1, S1P2, S1P3, S1P4, or S1P5 cells are loaded with FLIPR Calcium 4 dye from Molecular Devices (Sunnyvale, Calif.). Cells are imaged for calcium mobilization using a FLIPR^TERA equipped with a 96-well dispense head.
Agonist percentage activation determinations were obtained by assaying sample compounds and referencing the Emax control for each receptor profiled. Antagonist percentage inhibition determinations were obtained by assaying sample compounds and referencing the control EC80 wells for each receptor profiled. […]
Assay was read for 180 seconds using the FLIPR^TETRA (This assay run added sample compounds and reference agonist to respective wells). […]

human S1P4 [2] = biological target: T1, human S1P4; assay: S1P receptor calcium mobilization assay, antagonist format; format: cell-based; conditions: recombinant CHEM cells expressing human S1P4; calcium flux, FLIPR; stimulated with EC80 of reference agonist
Protocol: as §1
Agonist percentage activation determinations were obtained by assaying sample compounds and referencing the Emax control for each receptor profiled. Antagonist percentage inhibition determinations were obtained by assaying sample compounds and referencing the control EC80 wells for each receptor profiled.
Sample compounds were plated in an eight-point, four-fold dilution series in duplicate with a top concentration of 10 μM. The concentrations described here reflect the final concentration of the compounds during the antagonist assay. During the agonist assay the compound concentrations were 1.25 fold higher to allow for the final desired concentration to be achieved with further dilution by EC80 of reference agonists during the antagonist assay.
Reference agonists were handled as mentioned above serving as assay control. The reference agonists were handled as described above for Emax.
Assay was read for 180 seconds using the FLIPR^TETRA (This assay run added sample compounds and reference agonist to respective wells). At the completion of the first “Single Addition” assay run, assay plate was removed from the FLIPR^TETRA and placed at 25° C. for seven (7) minutes.
Using the EC80 values determined during the agonist assay, stimulated all pre-incubated sample compound and reference antagonist (if applicable) wells with EC80 of reference agonist. Read for 180 seconds using the FLIPR^TETRA (This assay added reference agonist to respective wells-then fluorescence measurements were collected to calculate percentage inhibition values).

| SMILES | IC50 (human S1P4 [1]) | IC50 (human S1P4 [2]) |
| --- | --- | --- |
| CC1(C)CCC(Oc2ccc3cc(CN4CC(C5CCCC(C(=O)O)C5)C4)ccc3c2)CC1 (stereo not drawn) [Example 62, 3-(1-((6-((4,4-dimethylcyclohexyl)oxy)naphthalen-2-yl)methyl)azetidin-3-yl)cyclohexanecarboxylic acid] | ≤ 500 nM |  |
| CC(C)(C)[C@H]1CC[C@H](Oc2ccc3cc(CN4CCN(c5ccncc5)CC4)ccc3c2)CC1 [Example 46, 1-((6-((trans-4-(tert-butyl)cyclohexyl)oxy)naphthalen-2-yl)methyl)-4-(pyridin-4-yl)piperazine] |  | ≤ 500 nM |
| CC(C)[C@H]1CC[C@H](Oc2ccc3cc(CNC45CCC(C(=O)O)(CC4)CC5)ccc3c2)CC1 [Example 4, 4-(((6-((trans-4-isopropylcyclohexyl)oxy)naphthalen-2-yl)methyl)amino)bicyclo[2.2.2]octane-1-carboxylic acid] |  | ≤ 250 nM |
| CC(C)(C)[C@H]1CC[C@H](Oc2ccc3cc(CNC45CCC(C(=O)O)(CC4)C(O)C5)ccc3c2)CC1 (stereo partly drawn) [Example 80, 4-((6-(trans-4-tert-Butylcyclohexyloxy)naphthalen-2-yl)methylamino)-2-hydroxybicyclo[2.2.2]octane-1-carboxylic acid] |  | ≤ 250 nM |
| CC(C)(C)[C@H]1CC[C@H](Oc2ccc3cc(CN4CCN(c5ncccn5)CC4)ccc3c2)CC1 [Example 44, 2-(4-((6-((trans-4-(tert-butyl)cyclohexyl)oxy)naphthalen-2-yl)methyl)piperazin-1-yl)pyrimidine] |  | ≤ 500 nM |
| O=C(O)C12CCC(NCc3ccc4cc(OC5CCC6(CCCCC6)CC5)ccc4c3)(CC1)CC2 [Example 11, 4-(((6-(spiro[5.5]undecan-3-yloxy)naphthalen-2-yl)methyl)amino)bicyclo[2.2.2]octane-1-carboxylic acid] |  | ≤ 250 nM |
